Source: US20140024803A1, “18FDG MULTIMERIC POSITRON EMISSION TOMOGRAPHY IMAGING AGENTS” (priority 2012, published 2014)

Experiment: In vitro calcium salt specificity experiment (PET/CT of crystals after incubation and washing)
Format: binding
Settings: 5 mg/mL calcium salts (HA, phosphate, oxalate, carbonate, pyrophosphate), 10 μCi in 100 μL PBS, 20 min at RT, washed, 10 minute static PET/CT scan
Protocol: To determine the selectivity and specificity of ^18FDG amino-Ad-Pam-Monomer for hydroxyapatite (HA), a major mineral component of calcifications and normal bone, over other calcium salts, in the present invention an incubation of equal quantity each of Ca-hydroxyapatite (HA), Ca-pyrophosphate (CPP), Ca-phosphate (CP), Ca-oxalate (CO), and Ca-carbonate (CC) salts with ^18FDG amino-Ad-Pam-Monomer in phosphate buffered saline (PBS) is performed. PET/CT images are acquired after incubation and washing of crystals, ^18FDG amino-Ad-Pam-Monomer has about 5-fold specificity for HA over other calcium salts found in the body and permits PET/CT detection of HA with high sensitivity. However, Na^18F, the Food and Drug Administration approved imaging agent for bone scintigraphy, permits about 1.5 fold specificity for HA over other calcium salts.
In a 96-well plate, 5 mg/mL of hydroxyapatite (HA) or the phosphate, oxalate, carbonate, and pyrophosphate salts of calcium are separately incubated with ^18FDG amino-Ad-Pam-Monomer (10 μCi) in 100 μL PBS for 20 min with continuous vortexing at RT. Crystals are washed 4 times with a 100-fold excess of PBS, centrifuged and mounted on PET/CT and 10 minute static scans are acquired. Similarly, calcium salt binding study is performed with Na^18F in a same condition.

## [18F-].[Na+] [Na^18F]
  specificity for HA over other calcium salts: about 1.5 fold
